The target of one assay is T1, h-NTPDase2 (Homo sapiens, UniProt Q9Y5L3).
T1 construct: made in house; host or cells: COS-7 cells, transient transfection; crude protein extract after sonication
T1 sequence (Q9Y5L3 1-495): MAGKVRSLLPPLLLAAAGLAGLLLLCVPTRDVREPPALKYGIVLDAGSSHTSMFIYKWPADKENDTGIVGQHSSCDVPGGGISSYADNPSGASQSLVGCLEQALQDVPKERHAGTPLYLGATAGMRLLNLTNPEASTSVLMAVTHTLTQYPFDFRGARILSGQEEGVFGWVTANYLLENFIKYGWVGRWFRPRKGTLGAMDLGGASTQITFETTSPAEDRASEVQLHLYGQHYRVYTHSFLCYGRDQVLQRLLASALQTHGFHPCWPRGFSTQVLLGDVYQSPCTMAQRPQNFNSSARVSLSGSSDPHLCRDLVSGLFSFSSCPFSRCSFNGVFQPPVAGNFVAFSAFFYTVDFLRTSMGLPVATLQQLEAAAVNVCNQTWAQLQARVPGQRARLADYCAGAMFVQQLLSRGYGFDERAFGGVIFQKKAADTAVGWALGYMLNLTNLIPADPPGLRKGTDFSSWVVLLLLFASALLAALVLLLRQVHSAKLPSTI
The experiment in a line: h-NTPDase2 inhibition, malachite green assay. Type of assay: biochemical. As to conditions: Lineweaver-Burk plot.

The next assay concerns NTPDase3 mRNA. The experiment in a line: NTPDase3 mRNA expression in mice islets by real time qPCR. The format is cell-based. The method, then: Freshly isolated mice islets were incubated in KRBB at 37°C with glucose (3 mM). After 45 min, these islets were treated with test compounds in KRBB at 37°C for 3 h, in the presence of stimulatory glucose concentration. Once the incubation was complete, supernatant was removed carefully, and RNA was extracted from these islets.
Total RNA was extracted using TRIzol reagent, according to manufacturer’s instruction. The concentration of isolated RNA was quantified by using Lvis plate method (FLUOstar Omega, BMG Labtech, Ortenberg, Germany). This RNA was then reverse transcribed to cDNA in a total reaction volume of 20 µl. Briefly, a reaction mixture containing RNA (1 µg) and oligo-dT (20 μM, 1 µl) was prepared and volume was adjusted to 12 µl with nuclease free water. The prepared mixture was incubated at 65°C for 5 min and then immediately chilled on ice. Afterward, 8 µl of master mix containing 5X reaction buffer (4 µl), rnase inhibitor (1 µl), dNTPs mix (10 mM, 2 µl) and reverse transcriptase (1 µl) was added to above sample. After gentle pipetting, sample was run under following conditions: 25°C for 5 min, 42°C for 70 min and 70°C for 5 min. Once the cDNA was synthesized, real time quantitative PCR was conducted by using PikoReal 96 Real-Time PCR system (Thermo Scientific, Vantaa, Finland). […] Relative expression was determined by normalization to β actin mRNA by ΔΔCT method.

Entries after “also recorded” stand apart in the source; their conditions may differ.

Take `COc1ccc(OC)c(NC(=S)N/N=C2\C(=O)Nc3ccccc32)c1` [8j, (Z)-N-(2,5-dimethoxyphenyl)-2-(2-oxoindolin-3-ylidene)hydrazine-1-carbothioamide]: the “Mode of inhibition of h-NTPDase2” value on h-NTPDase2 is recorded as “competitive”.
`CCNC(=S)N/N=C1\C(=O)Nc2ccccc21` [8m, (Z)-N-ethyl-2-(2-oxoindolin-3-ylidene)hydrazine-1-carbothioamide]: the “Effect on expression level of β-actin (housekeeping gene)” value in the assay with NTPDase3 mRNA (mice islets treated 3 h) is recorded as “not affected”. The “Effect on NTPDase3 gene expression (mRNA)” value in the assay on NTPDase3 mRNA (mice islets treated 3 h at stimulatory glucose, normalized to β actin, versus control) is “no significant effect (p > 0.05); also recorded: had not suppressed the gene expression of NTPDase3; also recorded: without affecting the NTPDase3 gene expression”.

For the origin of these results see PMC7734281, “Functionalized Oxoindolin Hydrazine Carbothioamide Derivatives as Highly Potent Inhibitors of Nucleoside Triphosphate Diphosphohydrolases” (Frontiers in Pharmacology, 2020).
